Results reported in patent US6689778B2, “Inhibitors of Src and Lck protein kinases” (Vertex Pharmaceuticals Incorporated, priority 2001, dated 2004).

Assays:
human Src kinase = target: T1, human Src kinase (Homo sapiens, UniProt P12931); assay: Src inhibition assay (radioactivity-based assay A or spectrophotometric assay B); format: biochemical; conditions: recombinant human Src, poly Glu-Tyr substrate; assay A or B not specified
T1 construct: full length recombinant human Src kinase (from Upstate Biotechnology, cat. no. 14-117); purchased Upstate Biotechnology 14-117; host or cells: baculovirus-infected (insect) cells
T1 sequence (P12931 whole entry): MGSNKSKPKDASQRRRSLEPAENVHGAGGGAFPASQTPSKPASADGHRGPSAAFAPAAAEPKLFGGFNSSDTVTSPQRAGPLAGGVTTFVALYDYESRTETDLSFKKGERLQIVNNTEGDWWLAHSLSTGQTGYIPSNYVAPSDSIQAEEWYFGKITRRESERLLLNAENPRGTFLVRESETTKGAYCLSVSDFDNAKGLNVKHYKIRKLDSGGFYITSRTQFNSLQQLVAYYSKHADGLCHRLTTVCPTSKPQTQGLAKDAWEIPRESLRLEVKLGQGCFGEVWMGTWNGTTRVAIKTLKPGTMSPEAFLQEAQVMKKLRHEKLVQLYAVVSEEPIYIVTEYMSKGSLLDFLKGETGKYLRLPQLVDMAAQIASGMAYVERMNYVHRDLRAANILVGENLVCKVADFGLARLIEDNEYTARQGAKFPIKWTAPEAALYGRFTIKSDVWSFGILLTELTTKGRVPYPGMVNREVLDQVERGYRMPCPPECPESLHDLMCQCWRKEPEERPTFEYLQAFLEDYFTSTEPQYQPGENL
Experimental: The compounds were evaluated as inhibitors of human Src kinase using either a radioactivity-based assay or spectrophotometric assay.
(§1) The compounds were assayed as inhibitors of full length recombinant human Src kinase (from Upstate Biotechnology, cat. no. 14-117) expressed and purified from baculo viral cells. Src kinase activity was monitored by following the incorporation of ^33P from ATP into the tyrosine of a random poly Glu-Tyr polymer substrate of composition, Glu:Tyr=4:1 (Sigma, cat. no. P-0275). The following were the final concentrations of the assay components: 0.05 M HEPES, pH 7.6, 10 mM MgCl2, 2 mM DTT, 0.25 mg/ml BSA, 10 μM ATP (1-2 μCi ^33P-ATP per reaction), 5 mg/ml poly Glu-Tyr, and 1-2 units of recombinant human Src kinase. In a typical assay, all the reaction components with the exception of ATP were pre-mixed and aliquoted into assay plate wells. Inhibitors dissolved in DMSO were added to the wells to give a final DMSO concentration of 2.5%. The assay plate was incubated at 30° C. for 10 minutes before initiating the reaction with ^33P-ATP. After 20 minutes of reaction, the reactions were quenched with 150 μl of 10% trichloroacetic acid (TCA) containing 20 mM Na3PO4. The quenched samples were then transferred to a 96-well filter plate (Whatman, UNI-Filter GF/F Glass Fiber Filter, cat no. 7700-3310) installed on a filter plate vacuum manifold. Filter plates were washed four times with 10% TCA containing 20 mM Na3PO4 and then 4 times with methanol. 200 μl of scintillation fluid was then added to each well. The plates were sealed and the amount of radioactivity associated with the filters was quantified on a TopCount scintillation counter. The radioactivity incorporated was plotted as a function of the inhibitor concentration. The data was fitted to a competitive inhibition kinetics model to get the Ki for the compound.
(§2) The ADP produced from ATP by the human recombinant Src kinase-catalyzed phosphorylation of poly Glu-Tyr substrate was quanitified using a coupled enzyme assay (Fox et al (1998) Protein Sci 7, 2249). In this assay one molecule of NADH is oxidised to NAD for every molecule of ADP produced in the kinase reaction. The disappearance of NADH can be conveniently followed at 340 nm.
(§3) The following were the final concentrations of the assay components: 0.025 M HEPES, pH 7.6, 10 mM MgCl2, 2 mM DTT, 0.25 mg/ml poly Glu-Tyr, and 25 nM of recombinant human Src kinase. Final concentrations of the components of the coupled enzyme system were 2.5 mM phosphoenolpyruvate, 200 μM NADH, 30 μg/ml pyruvate kinase and 10 μg/ml lactate dehydrogenase.
(§4) In a typical assay, all the reaction components with the exception of ATP were pre-mixed and aliquoted into assay plate wells. Inhibitors dissolved in DMSO were added to the wells to give a final DMSO concentration of 2.5%. The assay plate was incubated at 30° C. for 10 minutes before initiating the reaction with 100 μM ATP. The absorbance change at 340 nm with time, the rate of the reaction, was monitored on a molecular devices plate reader. The data of rate as a function of the inhibitor concentration was fitted to compettive inhibition kinetics model to get the Ki for the compound.

human Lck kinase = human Lck kinase (UniProt P06239); assay: Lck inhibition assay (radioactivity-based assay A or spectrophotometric assay B); format: biochemical; conditions: poly Glu-Tyr substrate; assay A or B not specified; read-out: Lck Activity (Ki class)
Experimental: The compounds were evaluated as inhibitors of human Lck kinase using either a radioactivity-based assay or spectrophotometric assay.
as §1, with “length bovine thymus Lck” for “length recombinant human Src”, “no. 14-106)” for “no. 14-117)”, “cells. Lck” for “cells. Src”, “components: 0.025” for “components: 0.05”, “20 min” for “20 minutes”
as §2, with “Lck” for “Src”
as §3, with “DTT, 5” for “DTT, 0.25”, “and 50” for “and 25”, “human Lck” for “human Src”
as §4, with “150” for “100”, “competitive” for “compettive”

Ki (human Src kinase)	Ki (human Lck kinase)	Compound
< 100 nM	< 100 nM	Cc1onc(C2CCCCC2)c1-c1ccnc(Nc2cccc(OCCOC3CCCCO3)c2)n1 (centres unmarked) [IIIa-1]
< 100 nM	< 100 nM	Cc1onc(C2CCCCC2)c1-c1ccnc(Nc2cccc(OCCN3CCOCC3)c2)n1 [IIIa-2]
< 100 nM	< 100 nM	Cc1onc(C2CCCCC2)c1-c1ccnc(Nc2cccc(OCCN3CCCC3)c2)n1 [IIIa-3]
< 100 nM	< 100 nM	Cc1onc(C2CCCCC2)c1-c1ccnc(Nc2cccc(OCCN3CCCCC3)c2)n1 [IIIa-4]
< 100 nM	< 100 nM	Cc1onc(C2CCCCC2)c1-c1ccnc(Nc2cccc(OCCN3CCC(O)CC3)c2)n1 [IIIa-5]
< 100 nM	< 100 nM	Cc1onc(C2CCCCC2)c1-c1ccnc(Nc2cccc(OCCN3CCC(CO)CC3)c2)n1 [IIIa-6]
< 100 nM	< 100 nM	Cc1onc(C2CCCCC2)c1-c1ccnc(Nc2cccc(OCCN3CCC[C@H]3CO)c2)n1 [IIIa-7]
< 100 nM	< 100 nM	Cc1onc(C2CCCCC2)c1-c1ccnc(Nc2cccc(OCCN3CCN(CCO)CC3)c2)n1 [IIIa-8]
	< 100 nM	Cc1onc(C2CCCCC2)c1-c1ccnc(Nc2cccc(OCCCN3CCC(O)CC3)c2)n1 [IIIa-9]
	< 100 nM	Cc1onc(C2CCCCC2)c1-c1ccnc(Nc2cccc(OCCCN3CCC(CO)CC3)c2)n1 [IIIa-10]
	< 100 nM	Cc1onc(C2CCCCC2)c1-c1ccnc(Nc2cccc(OCCCN3CCC[C@H]3CO)c2)n1 [IIIa-11]
	< 100 nM	Cc1onc(C2CCCCC2)c1-c1ccnc(Nc2cccc(OCCCN3CCN(CCO)CC3)c2)n1 [IIIa-12]
	< 100 nM	Cc1onc(C2CCCCC2)c1-c1ccnc(Nc2cccc(OCCCN3CCCC(O)C3)c2)n1 (centres unmarked) [IIIa-13]
	< 100 nM	Cc1onc(C2CCCCC2)c1-c1ccnc(Nc2cccc(OCCCN3CCOCC3)c2)n1 [IIIa-15]
	< 100 nM	Cc1onc(C2CCCCC2)c1-c1ccnc(Nc2cccc(OCCCN3CCCC3)c2)n1 [IIIa-16]
	< 100 nM	Cc1onc(C2CCCCC2)c1-c1ccnc(Nc2cccc(OCCCN3CCCCC3)c2)n1 [IIIa-17]
	< 100 nM	Cc1onc(C2CCCCC2)c1-c1ccnc(Nc2cccc(OCCCN3CCNCC3)c2)n1 [IIIa-18]

Ki (human Src kinase)	Ki (human Lck kinase)	Compound
	< 100 nM	Cc1onc(C2CCCCC2)c1-c1ccnc(Nc2cccc(OCCCCN3CCC(O)CC3)c2)n1 [IIIa-19]
	< 100 nM	Cc1onc(C2CCCCC2)c1-c1ccnc(Nc2cccc(OCCCCN3CCN(CCO)CC3)c2)n1 [IIIa-22]
	< 100 nM	CCN1CCN(CCCCOc2cccc(Nc3nccc(-c4c(C5CCCCC5)noc4C)n3)c2)CC1 [IIIa-23]
	< 100 nM	Cc1onc(C2CCCCC2)c1-c1ccnc(Nc2cccc(OCCCCN3CCOCC3)c2)n1 [IIIa-24]
	< 100 nM	Cc1onc(C2CCCCC2)c1-c1ccnc(Nc2cccc(OCCCCN3CCCC3)c2)n1 [IIIa-25]
	< 100 nM	Cc1onc(C2CCCCC2)c1-c1ccnc(Nc2cccc(OCCCCN3CCCCC3)c2)n1 [IIIa-26]
	> 1000 nM	Cc1onc(C2CCCCC2)c1-c1ccnc(Nc2cccc(OC3CCCN(C(=O)OC(C)(C)C)C3)c2)n1 (centres unmarked) [IIIa-28]
	< 100 nM	Cc1onc(C2CCCCC2)c1-c1ccnc(Nc2cccc(OC3CCCNC3)c2)n1 (centres unmarked) [IIIa-29]
	> 1000 nM	Cc1onc(C2CCCCC2)c1-c1ccnc(Nc2cccc(OCC3CCCN(C(=O)OC(C)(C)C)C3)c2)n1 (centres unmarked) [IIIa-30]
	< 100 nM	Cc1onc(C2CCCCC2)c1-c1ccnc(Nc2cccc(OCC3CCCNC3)c2)n1 (centres unmarked) [IIIa-31]
	> 1000 nM	COc1cc(Nc2ncc(C(=O)O)c(-c3c(C4CCCCC4)noc3C)n2)cc(OC)c1 [IIIb-24]
	> 1000 nM	COc1cc(Nc2ncc(CO)c(-c3c(C4CCCCC4)noc3C)n2)cc(OC)c1 [IIIb-25]
	> 1000 nM	COc1cc(Nc2ncc(C(N)=O)c(-c3c(C4CCCCC4)noc3C)n2)cc(OC)c1 [IIIb-26]
	100 to 1000 nM	COc1cc(Nc2ncc(C#N)c(-c3c(C4CCCCC4)noc3C)n2)cc(OC)c1 [IIIb-27]
< 100 nM	< 100 nM	CCc1onc(C2CCCCC2)c1-c1nc(Nc2cccc(O)c2)ncc1C [IIIb-28]
	< 100 nM	CCCOCc1cnc(Nc2cc(OC)cc(OC)c2)nc1-c1c(C2CCCCC2)noc1C [IIIb-29]
< 100 nM	< 100 nM	Cc1onc(C2CCCCC2)c1-c1ccnc(Nc2cccc(NC(=O)CCN3CCCCC3)c2)n1 [Va-1]
